{"source": "patent US11242335B2", "about": "“Fluorine-substituted indazole compounds and uses thereof” (SUNSHINE LAKE PHARMA CO., LTD., priority 2017, dated 2022)", "target": "T1, soluble guanylate cyclase (sGC) expressed by CHO-K1-Rat sGC monoclonal cell line (Rattus norvegicus, UniProt P19686+P20595)", "T1 construct": "expressed in transfected cells; host or cells: CHO-K1", "T1 sequence (P19686 1-690)": "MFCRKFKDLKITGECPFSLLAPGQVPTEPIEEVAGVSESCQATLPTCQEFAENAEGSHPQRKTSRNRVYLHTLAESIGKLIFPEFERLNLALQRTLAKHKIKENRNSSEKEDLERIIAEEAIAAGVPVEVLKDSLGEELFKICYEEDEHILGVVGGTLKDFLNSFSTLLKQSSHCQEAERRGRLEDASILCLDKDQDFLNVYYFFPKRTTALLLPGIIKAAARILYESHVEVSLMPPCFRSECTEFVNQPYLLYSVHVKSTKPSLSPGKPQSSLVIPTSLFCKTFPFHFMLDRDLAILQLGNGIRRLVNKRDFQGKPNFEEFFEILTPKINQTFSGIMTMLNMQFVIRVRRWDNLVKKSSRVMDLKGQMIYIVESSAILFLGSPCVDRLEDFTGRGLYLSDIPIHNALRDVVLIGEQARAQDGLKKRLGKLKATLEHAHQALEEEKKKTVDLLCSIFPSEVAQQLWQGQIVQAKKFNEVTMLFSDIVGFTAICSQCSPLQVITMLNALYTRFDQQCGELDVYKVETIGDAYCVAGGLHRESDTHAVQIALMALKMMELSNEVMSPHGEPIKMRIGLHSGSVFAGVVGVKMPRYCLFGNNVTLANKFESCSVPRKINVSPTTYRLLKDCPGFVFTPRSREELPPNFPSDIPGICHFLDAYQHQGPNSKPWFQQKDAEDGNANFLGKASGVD", "T1 sequence (P20595 1-619)": "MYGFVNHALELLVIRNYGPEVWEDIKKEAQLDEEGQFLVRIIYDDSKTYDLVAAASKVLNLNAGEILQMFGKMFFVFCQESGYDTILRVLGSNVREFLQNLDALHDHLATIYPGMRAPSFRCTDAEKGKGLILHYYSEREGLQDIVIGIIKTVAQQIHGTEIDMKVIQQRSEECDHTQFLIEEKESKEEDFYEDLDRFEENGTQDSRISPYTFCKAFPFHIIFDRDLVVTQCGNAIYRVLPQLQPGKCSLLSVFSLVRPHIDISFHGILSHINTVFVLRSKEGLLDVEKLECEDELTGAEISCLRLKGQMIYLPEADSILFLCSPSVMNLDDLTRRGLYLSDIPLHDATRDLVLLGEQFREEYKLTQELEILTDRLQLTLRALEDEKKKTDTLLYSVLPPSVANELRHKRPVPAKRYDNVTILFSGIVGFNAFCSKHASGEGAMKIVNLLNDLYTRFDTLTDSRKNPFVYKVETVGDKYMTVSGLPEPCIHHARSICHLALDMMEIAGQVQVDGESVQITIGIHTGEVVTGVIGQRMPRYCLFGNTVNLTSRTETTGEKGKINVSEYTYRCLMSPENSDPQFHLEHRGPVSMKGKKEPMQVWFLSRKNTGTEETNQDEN", "assay": "Effect on recombinant guanylate cyclase reporter cell line (CHO-K1-Rat sGC, Cisbio cGMP HTRF)", "assay_type": "cell-based", "conditions": "activating soluble guanylate cyclase", "from_the_text": "Transfection of Soluble Guanylate Cyclase (sGC) gene into CHO-K1 cells and selection of cells with stably and highly expressed sGC: Rat sGCα1 and Rat sGCβ1 Genes were synthesized, and then pcDNA3.1(+)-rat sGCα1 and pcDNA3.1/Hygro (+)-rat sGCβ1 plasmid were constructed; the plasmid was co-transfected into CHO-K1 cells, and a positive clone cell line stably expressing CHO-K1-Rat sGC was selected using the Cisbio cGMP HTRF assay kit.\nThe activity of the compound on the CHO-K1-Rat sGC monoclonal cell line was determined: The CHO-K1-Rat sGC monoclonal cell line was cultured, and used for test operation at degree of fusion of about 70% to 90%. The cells were resuspended in complete medium after TrypLE digestion; the cells were inoculated in a 384-well (low volume tissues culture treated) cell culture plate at a seeding density of 7500/well in 25 μL of complete medium and incubated at 37° C. in 5% CO2 atmosphere for 20 hours; the test compounds were dissolved and dilute with DMSO to give 10 concentration gradients (2× working concentration); 384-well cell culture plates were centrifugated (200 g) for 3 seconds by inversion at RT, medium was removed; The test compounds in each different concentration gradient and corresponding reagent were added into each cell well according to the detection process of Cisbio cGMP HTRF assay kit. The data were collected with Envision HTRF detector and the EC50 value of each compound in activating soluble guanylate cyclase was calculated."}
{"smiles": "COC(=O)Nc1c(N)nc(-c2nn(Cc3ccccc3F)c3c(F)cccc23)nc1N", "note": "[Example 10, methyl (4,6-diamino-2-(7-fluoro-1-(2-fluorobenzyl)-1H-indazol-3-yl)pyrimidin-5-yl)carbamate]", "values": [{"measurement": "EC50", "result": 370, "unit": "nM"}]}
